Assay results taken from PubChem BioAssay AID1963839 (Molecular Pharmacology Branch, DTP, NCI, 2024).

Tested on: 817829-284-R-J1-PDC complex spheroid viability
Assay: Anticancer human tumor 817829-284-R-J1-PDC patient-derived colon adenocarcinoma cell line growth inhibition [POLQ]
Conditions: for IC50: curve of first compound; for viability, T/C: stronger effect = lower value
Outline: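 PDC + HUVEC + MSC complex spheroids; POLQ inhibitors ± partner drugs; top conc. at/near clinical Cmax, else 10 microM (SN-38 1 microM), half-log dilutions; 37 degrees C, 5% CO2.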

[1] = second compound 0.0316 µM, first compound 0.0316 µM
[2] = second compound 0.0316 µM, first compound 0.1 µM
[3] = second compound 0.0316 µM, first compound 0.316 µM
[4] = second compound 0.0316 µM, first compound 1 µM
[5] = second compound 0.0316 µM, first compound 3.16 µM
[6] = second compound 0.0316 µM, first compound 10 µM
[7] = second compound 0.1 µM, first compound 0.0316 µM
[8] = second compound 0.1 µM, first compound 0.1 µM
[9] = second compound 0.1 µM, first compound 0.316 µM
[10] = second compound 0.1 µM, first compound 1 µM
[11] = second compound 0.1 µM, first compound 3.16 µM
[12] = second compound 0.1 µM, first compound 10 µM
[13] = second compound 0.316 µM, first compound 0.0316 µM
[14] = second compound 0.316 µM, first compound 0.1 µM
[15] = second compound 0.316 µM, first compound 0.316 µM
[16] = second compound 0.316 µM, first compound 1 µM
[17] = second compound 0.316 µM, first compound 3.16 µM
[18] = second compound 0.316 µM, first compound 10 µM
[19] = second compound 1 µM, first compound 0.0316 µM
[20] = second compound 1 µM, first compound 0.1 µM
[21] = second compound 1 µM, first compound 0.316 µM
[22] = second compound 1 µM, first compound 1 µM
[23] = second compound 1 µM, first compound 3.16 µM
[24] = second compound 1 µM, first compound 10 µM
[25] = second compound 3.16 µM, first compound 0.0316 µM
[26] = second compound 3.16 µM, first compound 0.1 µM
[27] = second compound 3.16 µM, first compound 0.316 µM
[28] = second compound 3.16 µM, first compound 1 µM
[29] = second compound 3.16 µM, first compound 3.16 µM
[30] = second compound 3.16 µM, first compound 10 µM
[31] = second compound 10 µM, first compound 0.0316 µM
[32] = second compound 10 µM, first compound 0.1 µM
[33] = second compound 10 µM, first compound 0.316 µM
[34] = second compound 10 µM, first compound 1 µM
[35] = second compound 10 µM, first compound 3.16 µM
[36] = second compound 10 µM, first compound 10 µM
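Note: spheroids exposed to compounds for 7 days.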
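Throughout, for viability, T/C: 100% = DMSO vehicle-treated spheroids.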

CC1COCCN1c1cc(C2(S(C)(=N)=O)CC2)nc(-c2ccnc3[nH]ccc23)n1 (centres undefined) + Nc1ccc(C#CCN(C(=O)Cc2ncc(C(F)(F)F)cc2C(F)(F)F)c2ccc(F)cc2)nn1
IC50 (second compound 0.0316 µM): 313 nM | IC50 (second compound 0.1 µM): 437 nM | IC50 (second compound 0.316 µM): 409 nM | IC50 (second compound 1 µM): 487 nM | IC50 (second compound 3.16 µM): 471 nM | IC50 (second compound 10 µM): 306 nM | viability, T/C [1]: 83.3% | viability, T/C [2]: 74.2% | viability, T/C [3]: 48.2% | viability, T/C [4]: 25.8% | viability, T/C [5]: 8.98% | viability, T/C [6]: 4.09% | viability, T/C [7]: 83.5% | viability, T/C [8]: 82.1% | viability, T/C [9]: 60.7% | viability, T/C [10]: 21.9% | viability, T/C [11]: 8.16% | viability, T/C [12]: 4.21% | viability, T/C [13]: 99.9% | viability, T/C [14]: 86.6% | viability, T/C [15]: 57.8% | viability, T/C [16]: 24.6% | viability, T/C [17]: 7.24% | viability, T/C [18]: 5.14% | viability, T/C [19]: 86.9% | viability, T/C [20]: 87.2% | viability, T/C [21]: 67.6% | viability, T/C [22]: 20.4% | viability, T/C [23]: 7.25% | viability, T/C [24]: 5.6% | viability, T/C [25]: 95.7% | viability, T/C [26]: 83.7% | viability, T/C [27]: 66% | viability, T/C [28]: 22.3% | viability, T/C [29]: 6.64% | viability, T/C [30]: 4.14% | viability, T/C [31]: 86.6% | viability, T/C [32]: 76.3% | viability, T/C [33]: 48.1% | viability, T/C [34]: 23.1% | viability, T/C [35]: 5.64% | viability, T/C [36]: 5.25%

CC1COCCN1c1cc(-c2ccnn2C)c2ccnc(-c3ccn[nH]3)c2n1 (centres undefined) + Cc1cccc(N(C)C(=O)C2C(O)CCN2c2nc(C)cc(C(F)(F)F)c2C#N)c1
IC50 (second compound 0.0316 µM): < 31.6 nM | IC50 (second compound 0.1 µM): < 31.6 nM | IC50 (second compound 0.316 µM): < 31.6 nM | IC50 (second compound 1 µM): < 31.6 nM | IC50 (second compound 3.16 µM): 32.7 nM | IC50 (second compound 10 µM): < 31.6 nM | viability, T/C [1]: 36.6% | viability, T/C [2]: 19.1% | viability, T/C [3]: 6.76% | viability, T/C [4]: 4.35% | viability, T/C [5]: 3.09% | viability, T/C [6]: 2.85% | viability, T/C [7]: 33.4% | viability, T/C [8]: 16.9% | viability, T/C [9]: 7.78% | viability, T/C [10]: 4.15% | viability, T/C [11]: 3.55% | viability, T/C [12]: 2.55% | viability, T/C [13]: 45.2% | viability, T/C [14]: 15.3% | viability, T/C [15]: 6.75% | viability, T/C [16]: 4.29% | viability, T/C [17]: 3.67% | viability, T/C [18]: 2.6% | viability, T/C [19]: 33.9% | viability, T/C [20]: 13.1% | viability, T/C [21]: 5.41% | viability, T/C [22]: 4.86% | viability, T/C [23]: 3.3% | viability, T/C [24]: 2.87% | viability, T/C [25]: 50.8% | viability, T/C [26]: 21.9% | viability, T/C [27]: 5.75% | viability, T/C [28]: 3.57% | viability, T/C [29]: 3.34% | viability, T/C [30]: 3.14% | viability, T/C [31]: 36.6% | viability, T/C [32]: 20% | viability, T/C [33]: 7.43% | viability, T/C [34]: 4.51% | viability, T/C [35]: 3.57% | viability, T/C [36]: 2.62%
